What was measured:
[1] = tested on: H727 lung cancer cell lines, which contain a G12V K-Ras mutation; test: Inhibition of cancer cell proliferation (CellTiter-Glo, 3 days); assay type: cell-based; details: Homo sapiens, NCI-H727, 72 h, H727 cells, 3 days at 37° C., normalized to DMSO control, read-out: Cell proliferation activity (H727 cancer cell line proliferation IC50)
Method: C. Inhibition of Cancer Cell Proliferation
Compounds of the present invention were measured for their ability to kill H727 lung cancer cell lines, which contain a G12V K-Ras mutation. Cell proliferation experiments were conducted in 96-well plates. Cells were plated at 1000 cells/well, incubated overnight, followed by treatment with a dose range of compound for 3 days at 37° C. Cell proliferation was assessed using a CellTiter-Glo assay (Promega) according to the manufacturer's protocol. Data were normalized to DMSO control. IC50 values were determined using a four-parameter dose-response (variable slope) equation. These assays are performed in a manner analogous to the assay disclosed in: Burns, M. C.; Sun, Q.; Daniels, R. N.; Camper, D. V.; Kennedy, J. P.; Phan, J.; Olejniczak, E. O.; Lee, T.; Waterson, A. G.; Rossanese, O. W.; Fesik, S. W. “Approach for targeting Ras with small molecules that activate SOS-mediated nucleotide exchange” Proc. Natl. Acad. Sci. 2014; 11(9): 3401-3406. PMCID: PMC3948241.

Son of Sevenless (SOS) = molecular target: T1, Son of Sevenless (SOS) (Homo sapiens, UniProt Q07889); test: Binding to SOS, fluorescence polarization anisotropy (FPA) displacement of FITC-conjugated probe; details: binding affinity calculated from IC50 of FITC-probe displacement, read-out: Binding affinities (binding affinity to SOS)
T1 sequence (Q07889 564-1049 limits assumed): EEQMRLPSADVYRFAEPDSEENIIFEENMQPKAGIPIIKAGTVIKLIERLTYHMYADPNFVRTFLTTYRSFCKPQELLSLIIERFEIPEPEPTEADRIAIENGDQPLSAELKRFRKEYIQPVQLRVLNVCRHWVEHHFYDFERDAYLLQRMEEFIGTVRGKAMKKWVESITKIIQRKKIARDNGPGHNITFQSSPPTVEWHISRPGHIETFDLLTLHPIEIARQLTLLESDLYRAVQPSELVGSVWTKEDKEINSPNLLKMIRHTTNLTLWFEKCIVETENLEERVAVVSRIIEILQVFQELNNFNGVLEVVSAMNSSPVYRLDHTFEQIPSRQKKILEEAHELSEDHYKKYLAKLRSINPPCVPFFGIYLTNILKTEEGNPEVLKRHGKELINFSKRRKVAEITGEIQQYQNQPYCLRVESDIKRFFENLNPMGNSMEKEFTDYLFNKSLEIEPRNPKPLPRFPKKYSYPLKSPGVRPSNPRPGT
In short: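 FITC-labelled probe incubated with SOS in buffer; displacement by test compound across a dose range read as fluorescence anisotropy change. IC50 from four-parameter variable-slope fit, binding affinity calculated from IC50.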

[2] = molecular target: T2, SOS-mediated nucleotide exchange on Ras (Homo sapiens, UniProt Q07889); test: SOS-mediated nucleotide exchange on Ras (BODIPY-GDP fluorescence); assay type: biochemical; details: Ras loaded with BODIPY-GDP, GTP and SOS added; EC50 from derived exchange rates
T2 sequence (Q07889 1-1333): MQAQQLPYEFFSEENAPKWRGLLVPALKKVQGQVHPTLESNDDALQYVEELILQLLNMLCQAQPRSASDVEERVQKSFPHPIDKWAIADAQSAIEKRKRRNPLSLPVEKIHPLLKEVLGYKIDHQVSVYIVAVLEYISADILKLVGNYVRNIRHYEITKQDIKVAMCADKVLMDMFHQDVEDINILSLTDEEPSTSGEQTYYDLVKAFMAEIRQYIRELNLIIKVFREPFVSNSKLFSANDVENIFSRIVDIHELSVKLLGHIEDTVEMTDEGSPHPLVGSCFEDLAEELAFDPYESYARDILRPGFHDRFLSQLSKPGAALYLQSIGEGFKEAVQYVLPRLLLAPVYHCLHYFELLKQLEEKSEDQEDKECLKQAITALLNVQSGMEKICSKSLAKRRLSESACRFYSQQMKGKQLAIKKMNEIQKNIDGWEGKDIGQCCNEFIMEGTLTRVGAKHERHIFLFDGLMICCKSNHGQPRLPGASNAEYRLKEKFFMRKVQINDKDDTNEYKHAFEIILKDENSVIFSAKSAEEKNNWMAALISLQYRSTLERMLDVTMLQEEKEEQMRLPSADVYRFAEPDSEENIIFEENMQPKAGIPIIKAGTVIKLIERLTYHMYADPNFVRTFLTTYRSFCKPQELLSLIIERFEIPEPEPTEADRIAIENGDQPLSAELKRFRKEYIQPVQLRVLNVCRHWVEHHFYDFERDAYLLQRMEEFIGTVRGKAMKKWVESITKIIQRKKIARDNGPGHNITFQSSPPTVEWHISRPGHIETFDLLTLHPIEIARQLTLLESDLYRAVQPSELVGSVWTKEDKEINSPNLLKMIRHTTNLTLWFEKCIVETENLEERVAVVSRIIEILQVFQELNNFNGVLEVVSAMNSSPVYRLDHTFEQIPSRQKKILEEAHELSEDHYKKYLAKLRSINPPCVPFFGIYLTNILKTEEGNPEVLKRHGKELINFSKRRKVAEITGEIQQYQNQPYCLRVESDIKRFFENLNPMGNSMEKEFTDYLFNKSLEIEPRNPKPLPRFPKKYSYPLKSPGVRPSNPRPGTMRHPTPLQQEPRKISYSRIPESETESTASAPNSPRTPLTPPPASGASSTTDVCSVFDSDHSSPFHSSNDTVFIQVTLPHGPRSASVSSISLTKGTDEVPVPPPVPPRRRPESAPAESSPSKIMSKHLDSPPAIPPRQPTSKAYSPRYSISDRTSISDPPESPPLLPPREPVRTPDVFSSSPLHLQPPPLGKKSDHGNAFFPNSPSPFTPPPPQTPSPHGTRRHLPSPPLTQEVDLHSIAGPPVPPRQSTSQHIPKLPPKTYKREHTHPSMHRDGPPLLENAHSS
In short: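 Compound, then GTP and SOS, were added to buffered Ras preloaded with BODIPY-GDP, and the fluorescence change from labeled GDP being exchanged for GTP was followed over time. Rates came from single-exponential fits, and EC50 from a four-parameter fit of mean rate against compound concentration.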

Ki (Son of Sevenless (SOS))	EC50 [2]	SMILES	IC50 [1]
> 5 µM	> 30 µM	Fc1cc(F)cc(Nc2nc(NCc3ncc[nH]3)c3ccccc3n2)c1 [Example 22, N^4-((1H-imidazol-2-yl)methyl)-N^2-(3,5-difluorophenyl)quinazoline-2,4-diamine]	> 20 µM
> 5 µM	1 to 5 µM	CC[C@@H](Nc1nc(Nc2ccc(F)c(Cl)c2)nc2ccccc12)c1cccs1 [Example 39, (R)—N^2-(3-chloro-4-fluorophenyl)-N^4-(1-(thiophen-2-yl)propyl)quinazoline-2,4-diamine]	5 to 20 µM
> 5 µM	1 to 5 µM	C[C@@H](Nc1nc(Nc2ccc(F)c(Cl)c2)nc2c(C(=N)N)cccc12)C1CC1 [Example 57, (R)-2-((3-chloro-4-fluorophenyl)amino)-4-((1-cyclopropylethyl)amino)quinazoline-8-carboximidamide]	1 to 5 µM
> 5 µM	5 to 30 µM	CNCc1cccc2c(N[C@H](C)C3CC3)nc(Nc3ccc(F)c(Cl)c3)nc12 [Example 58, (R)—N^2-(3-chloro-4-fluorophenyl)-N^4-(1-cyclopropylethyl)-8-((methylamino)methyl)quinazoline-2,4-diamine]	1 to 5 µM
> 5 µM	5 to 30 µM	C[C@@H](Nc1nc(Nc2ccc(F)c(Cl)c2)nc2c(CNC(=N)N)cccc12)C1CC1 [Example 59, (R)-1-((2-((3-chloro-4-fluorophenyl)amino)-4-((1-cyclopropylethyl)amino)quinazolin-8-yl)methyl)guanidine]	5 to 20 µM
1 to 5 µM	1 to 5 µM	CC[C@@H](Nc1nc(Nc2ccc(F)c(Cl)c2)nc2c(N3CCNCC3)cccc12)C1CC1 [Example 64, (R)—N^2-(3-chloro-4-fluorophenyl)-N^4-(1-cyclopropylpropyl)-8-(piperazin-1-yl)quinazoline-2,4-diamine]	< 1 µM
> 5 µM	1 to 5 µM	CC[C@@H](Nc1nc(Nc2ccc(F)c(Cl)c2)nc2c(CN)cccc12)C1CC1 [Example 68, (R)-8-(aminomethyl)-N^2-(3-chloro-4-fluorophenyl)-N^4-(1-cyclopropylpropyl)quinazoline-2,4-diamine]	1 to 5 µM
> 5 µM	5 to 30 µM	NCc1cccc2c(NC(C3CC3)C3CC3)nc(NCC3CCCCC3)nc12 [Example 75, 8-(aminomethyl)-N^2-(cyclohexylmethyl)-N^4-(dicyclopropylmethyl)quinazoline-2,4-diamine]	< 1 µM
> 5 µM	1 to 5 µM	C[C@@H](Nc1nc(NCC2CCCCC2)nc2c(CN)cccc12)C1CC1 [Example 78, (R)-8-(aminomethyl)-N^2-(cyclohexylmethyl)-N^4-(1-cyclopropylethyl)quinazoline-2,4-diamine]	5 to 20 µM
> 5 µM	5 to 30 µM	CC[C@@H](Nc1nc(Nc2ccc(F)c(Cl)c2)nc2c(N3CCNCC3)cccc12)c1cccs1 [Example 101, (R)—N^2-(3-chloro-4-fluorophenyl)-8-(piperazin-1-yl)-N^4-(1-(thiophen-2-yl)propyl)quinazoline-2,4-diamine]	1 to 5 µM

SMILES	Ki (Son of Sevenless (SOS))	EC50 [2]	IC50 [1]
CC[C@@H](Nc1nc(Nc2ccc(F)c(Cl)c2)nc2c(C3=CCNCC3)cccc12)C1CC1 [Example 51, (R)—N^2-(3-chloro-4-fluorophenyl)-N^4-(1-cyclopropylpropyl)-8-(1,2,3,6-tetrahydropyridin-4-yl)quinazoline-2,4-diamine]	< 1 µM	1 to 5 µM	< 1 µM
C[C@@H](Nc1nc(Oc2ccc(F)c(Cl)c2)nc2c(C3=CCNCC3)cccc12)C1CC1 [Example 69, (R)-2-(3-chloro-4-fluorophenoxy)-N-(1-cyclopropylethyl)-8-(1,2,3,6-tetrahydropyridin-4-yl)quinazolin-4-amine]	> 5 µM	> 30 µM	1 to 5 µM
C[C@@H](Nc1nc(Nc2cc[nH]n2)nc2c(C3=CCNCC3)cccc12)C1CC1 [Example 70, (R)—N^4-(1-cyclopropylethyl)-N^2-(1H-pyrazol-3-yl)-8-(1,2,3,6-tetrahydropyridin-4-yl)quinazoline-2,4-diamine]	> 5 µM	> 30 µM	5 to 20 µM
C[C@@H](Nc1nc(Nc2ccn(C)n2)nc2c(C3=CCNCC3)cccc12)C1CC1 [Example 71, (R)—N^4-(1-cyclopropylethyl)-N^2-(1-methyl-1H-pyrazol-3-yl)-8-(1,2,3,6-tetrahydropyridin-4-yl)quinazoline-2,4-diamine]	> 5 µM	5 to 30 µM	1 to 5 µM
C[C@@H](Nc1nc(NCc2ncco2)nc2c(C3=CCNCC3)cccc12)C1CC1 [Example 72, (R)—N^4-(1-cyclopropylethyl)-N^2-(oxazol-2-ylmethyl)-8-(1,2,3,6-tetrahydropyridin-4-yl)quinazoline-2,4-diamine]	> 5 µM	5 to 30 µM	5 to 20 µM
C1=C(c2cccc3c(NC(C4CC4)C4CC4)nc(NCC4CCCCC4)nc23)CCNC1 [Example 73, N^2-(cyclohexylmethyl)-N^4-(dicyclopropylmethyl)-8-(1,2,3,6-tetrahydropyridin-4-yl)quinazoline-2,4-diamine]	1 to 5 µM	1 to 5 µM	< 1 µM
C[C@@H](Nc1nc(NCC2CCCCC2)nc2c(C3=CCNCC3)cccc12)C1CC1 [Example 76, (R)—N^2-(cyclohexylmethyl)-N^4-(1-cyclopropylethyl)-8-(1,2,3,6-tetrahydropyridin-4-yl)quinazoline-2,4-diamine]	1 to 5 µM	1 to 5 µM	< 1 µM
CCC(CC)CNc1nc(Nc2ccc(F)c(Cl)c2)nc2c(C3=CCNCC3)cccc12 [Example 98, N^2-(3-chloro-4-fluorophenyl)-N^4-(2-ethylbutyl)-8-(1,2,3,6-tetrahydropyridin-4-yl)quinazoline-2,4-diamine]	1 to 5 µM	5 to 30 µM	1 to 5 µM

From patent publication US11318137B2, “Quinazoline compounds as modulators of Ras signaling” (VANDERBILT UNIVERSITY, priority 2017, dated 2022)
